{"source": "ChEMBL document CHEMBL1201862", "about": "“PubChem BioAssay data set” (2004)", "key": {"X-box-binding protein 1": {"target": "X-box-binding protein 1 (Homo sapiens, UniProt P17861)", "format": "functional, Cricetulus griseus"}, "[1]": {"target": "T1, Microphthalmia-associated transcription factor (Homo sapiens, UniProt O75030)", "T1 sequence (O75030 whole entry)": "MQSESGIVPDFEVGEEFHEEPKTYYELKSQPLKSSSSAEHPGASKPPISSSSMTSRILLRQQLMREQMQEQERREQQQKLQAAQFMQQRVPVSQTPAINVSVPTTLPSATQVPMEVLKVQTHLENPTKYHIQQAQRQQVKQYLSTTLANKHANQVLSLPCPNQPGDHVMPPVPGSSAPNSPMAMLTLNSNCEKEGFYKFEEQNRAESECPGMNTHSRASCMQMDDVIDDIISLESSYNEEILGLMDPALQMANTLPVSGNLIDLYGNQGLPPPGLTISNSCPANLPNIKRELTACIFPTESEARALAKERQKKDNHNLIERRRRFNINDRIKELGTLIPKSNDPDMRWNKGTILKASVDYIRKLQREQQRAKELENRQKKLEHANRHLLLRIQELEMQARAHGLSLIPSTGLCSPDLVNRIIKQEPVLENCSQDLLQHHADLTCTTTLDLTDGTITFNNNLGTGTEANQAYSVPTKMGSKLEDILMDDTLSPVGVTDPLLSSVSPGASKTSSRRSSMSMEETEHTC", "assay": "reducers of TRPM1 reporter luminescence, concentration series – cell-based, SK-MEL-5, cherry-picked, set 3, MITF inhibitor project, dose response (AID 493073)", "format": "functional"}, "Melanocortin receptor 4": {"target": "Melanocortin receptor 4 (Homo sapiens, UniProt P32245)", "assay": "inhibitors of MC4R cAMP signaling – cell-based, TR-FRET, biased antagonists, dose response (AID 602298);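 note: antagonist potency against agonist-stimulated cAMP production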", "format": "functional"}, "[2]": {"target": "Neurotensin receptor type 1 (Homo sapiens, UniProt P30989)", "format": "functional"}, "[3]": {"target": "Heat shock protein HSP 90-alpha (Homo sapiens, UniProt P07900)", "format": "functional, organism-based"}, "[4]": {"assay": "cAMP pathway inhibition in counterscreen cell line – TR-FRET cAMP detection, counter-screen for MC4R biased antagonist project, dose response (AID 602305);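 note: U2OS cells stimulated with forskolin near its EC80 as the cAMP inducer; potency is for inhibition of forskolin-stimulated cAMP signaling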", "format": "functional, cell-based"}, "[5]": {"assay": "Luminescence Cell-Based Dose Retest to Confirm Inhibitors of Cancer Stem Cells. [Related pubchem assays (depositor defined):AID2717, AID2721]", "format": "functional", "settings": "Homo sapiens"}, "[6]": {"target": "T2, Rac GTPase-activating protein 1 (Homo sapiens, UniProt Q9H0H5)", "T2 sequence (Q9H0H5 whole entry)": "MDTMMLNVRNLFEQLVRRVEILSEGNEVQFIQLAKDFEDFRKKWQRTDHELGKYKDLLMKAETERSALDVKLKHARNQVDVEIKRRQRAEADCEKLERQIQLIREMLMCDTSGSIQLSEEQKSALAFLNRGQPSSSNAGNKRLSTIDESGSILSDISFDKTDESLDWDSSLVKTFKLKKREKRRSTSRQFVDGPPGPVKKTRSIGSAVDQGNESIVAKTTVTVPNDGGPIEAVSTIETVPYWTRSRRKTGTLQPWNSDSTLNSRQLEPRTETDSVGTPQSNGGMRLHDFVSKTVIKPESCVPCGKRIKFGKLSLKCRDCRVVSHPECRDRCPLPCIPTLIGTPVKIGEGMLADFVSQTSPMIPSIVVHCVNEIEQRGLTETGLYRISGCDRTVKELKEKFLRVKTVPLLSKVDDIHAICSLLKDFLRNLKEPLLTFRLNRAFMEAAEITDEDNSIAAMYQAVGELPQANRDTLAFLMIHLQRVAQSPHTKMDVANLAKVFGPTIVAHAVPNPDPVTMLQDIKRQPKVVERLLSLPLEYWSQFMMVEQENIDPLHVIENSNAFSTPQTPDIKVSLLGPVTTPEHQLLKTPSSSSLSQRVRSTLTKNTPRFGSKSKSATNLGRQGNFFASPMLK", "assay": "blockers of MgcRacGAP-driven Rac1 GTP hydrolysis – biochemical, ADP Hunter fluorescence, primary and confirmatory, confirmation (AID 624330)", "format": "functional"}, "[7]": {"assay": "HEK-293T cell viability reduction – luminescence, B-cell screen hits, cytotoxicity control for BCR NF-kB inhibitor project, dose response (AID 489021);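 note: cells exposed to compound for about 14 hours before viability readout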", "format": "functional, cell-based"}, "HEK293 [8]": {"tested_on": "HEK293", "assay": "EBV LMP1 TES2 canonical NF-kB signalling blockers – cell-based, HEK293, luciferase, cherry-pick, dose response (AID 588343)", "format": "functional", "settings": "Homo sapiens"}, "[9]": {"target": "Peroxisome proliferator-activated receptor gamma/Nuclear receptor coactivator 2 (Homo sapiens, UniProt P37231)", "sequence (P37231 whole entry)": "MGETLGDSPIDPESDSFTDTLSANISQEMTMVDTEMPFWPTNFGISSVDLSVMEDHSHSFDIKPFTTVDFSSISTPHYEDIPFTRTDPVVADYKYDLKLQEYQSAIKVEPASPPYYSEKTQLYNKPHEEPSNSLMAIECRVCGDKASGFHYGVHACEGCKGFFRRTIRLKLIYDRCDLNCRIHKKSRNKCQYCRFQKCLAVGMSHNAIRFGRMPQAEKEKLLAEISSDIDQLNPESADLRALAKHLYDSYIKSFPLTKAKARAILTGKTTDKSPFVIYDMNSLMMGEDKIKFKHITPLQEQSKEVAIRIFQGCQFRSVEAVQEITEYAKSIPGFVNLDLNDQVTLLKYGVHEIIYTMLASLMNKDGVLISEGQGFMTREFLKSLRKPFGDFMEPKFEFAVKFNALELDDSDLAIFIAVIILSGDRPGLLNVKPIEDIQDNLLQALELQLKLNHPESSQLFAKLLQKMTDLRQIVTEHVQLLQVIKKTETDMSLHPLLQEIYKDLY", "sequence (Q15596 whole entry, further chain)": "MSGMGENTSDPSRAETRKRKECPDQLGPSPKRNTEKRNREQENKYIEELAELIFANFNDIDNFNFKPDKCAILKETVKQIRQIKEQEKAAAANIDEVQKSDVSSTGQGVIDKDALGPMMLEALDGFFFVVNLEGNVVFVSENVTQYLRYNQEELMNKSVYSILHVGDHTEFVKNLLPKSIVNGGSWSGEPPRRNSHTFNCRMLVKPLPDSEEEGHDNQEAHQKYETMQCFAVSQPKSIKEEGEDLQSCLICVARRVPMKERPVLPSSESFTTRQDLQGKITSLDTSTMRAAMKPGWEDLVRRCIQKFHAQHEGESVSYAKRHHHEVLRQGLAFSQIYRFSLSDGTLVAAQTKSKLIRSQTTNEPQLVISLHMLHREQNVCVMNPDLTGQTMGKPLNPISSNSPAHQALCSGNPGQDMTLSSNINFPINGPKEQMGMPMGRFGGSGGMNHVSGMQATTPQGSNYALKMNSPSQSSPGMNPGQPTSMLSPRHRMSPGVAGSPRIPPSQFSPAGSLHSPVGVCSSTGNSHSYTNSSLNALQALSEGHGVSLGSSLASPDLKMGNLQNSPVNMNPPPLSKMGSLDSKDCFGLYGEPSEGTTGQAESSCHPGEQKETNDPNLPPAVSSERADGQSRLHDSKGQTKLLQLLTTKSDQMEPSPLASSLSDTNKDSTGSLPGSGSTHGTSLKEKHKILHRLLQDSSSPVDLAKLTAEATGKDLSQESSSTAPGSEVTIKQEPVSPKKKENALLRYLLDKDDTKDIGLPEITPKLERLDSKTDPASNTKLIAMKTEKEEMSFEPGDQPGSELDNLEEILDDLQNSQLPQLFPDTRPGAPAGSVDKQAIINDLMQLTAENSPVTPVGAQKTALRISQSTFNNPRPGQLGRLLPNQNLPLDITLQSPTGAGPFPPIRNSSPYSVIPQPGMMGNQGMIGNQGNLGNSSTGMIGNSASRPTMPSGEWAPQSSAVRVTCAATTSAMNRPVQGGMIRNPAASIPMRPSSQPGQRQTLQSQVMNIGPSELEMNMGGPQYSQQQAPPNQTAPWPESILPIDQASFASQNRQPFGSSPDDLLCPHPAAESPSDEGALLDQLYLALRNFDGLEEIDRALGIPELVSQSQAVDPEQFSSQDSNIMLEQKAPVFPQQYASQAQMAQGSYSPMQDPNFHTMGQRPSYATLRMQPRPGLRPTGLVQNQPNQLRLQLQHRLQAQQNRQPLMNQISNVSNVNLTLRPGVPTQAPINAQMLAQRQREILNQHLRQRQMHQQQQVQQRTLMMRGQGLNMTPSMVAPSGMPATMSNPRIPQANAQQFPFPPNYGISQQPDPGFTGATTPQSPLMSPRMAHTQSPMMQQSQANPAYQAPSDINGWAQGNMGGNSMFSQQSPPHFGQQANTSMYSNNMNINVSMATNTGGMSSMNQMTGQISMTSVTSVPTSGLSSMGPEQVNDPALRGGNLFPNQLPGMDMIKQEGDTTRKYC", "assay": "(§1) TR-FRET dose response biochemical High Throughput Screening assay for agonists of the steroid receptor coactivator 2 (SRC-2) recruitment by the peroxisome proliferator-activated receptor gamma (PPAR gamma): non-selective agonists. [Related pubchem assays: 1297, 1032 ]", "format": "functional"}, "[10]": {"target": "Peroxisome proliferator-activated receptor gamma/Nuclear receptor coactivator 1 (Homo sapiens, UniProt P37231)", "assay": "as §1, with “1 (SRC-1)” for “2 (SRC-2)”, “assays (depositor defined):AID1300, AID1808, AID504735, AID631]” for “assays: 1297, 1032 ]”", "format": "protein assay"}, "[11]": {"target": "Peroxisome proliferator-activated receptor gamma/Nuclear receptor coactivator 3 (Homo sapiens, UniProt P37231)", "sequence (P37231 whole entry)": "as the sequence (P37231 whole entry) above", "sequence (Q9Y6Q9 whole entry, further chain)": "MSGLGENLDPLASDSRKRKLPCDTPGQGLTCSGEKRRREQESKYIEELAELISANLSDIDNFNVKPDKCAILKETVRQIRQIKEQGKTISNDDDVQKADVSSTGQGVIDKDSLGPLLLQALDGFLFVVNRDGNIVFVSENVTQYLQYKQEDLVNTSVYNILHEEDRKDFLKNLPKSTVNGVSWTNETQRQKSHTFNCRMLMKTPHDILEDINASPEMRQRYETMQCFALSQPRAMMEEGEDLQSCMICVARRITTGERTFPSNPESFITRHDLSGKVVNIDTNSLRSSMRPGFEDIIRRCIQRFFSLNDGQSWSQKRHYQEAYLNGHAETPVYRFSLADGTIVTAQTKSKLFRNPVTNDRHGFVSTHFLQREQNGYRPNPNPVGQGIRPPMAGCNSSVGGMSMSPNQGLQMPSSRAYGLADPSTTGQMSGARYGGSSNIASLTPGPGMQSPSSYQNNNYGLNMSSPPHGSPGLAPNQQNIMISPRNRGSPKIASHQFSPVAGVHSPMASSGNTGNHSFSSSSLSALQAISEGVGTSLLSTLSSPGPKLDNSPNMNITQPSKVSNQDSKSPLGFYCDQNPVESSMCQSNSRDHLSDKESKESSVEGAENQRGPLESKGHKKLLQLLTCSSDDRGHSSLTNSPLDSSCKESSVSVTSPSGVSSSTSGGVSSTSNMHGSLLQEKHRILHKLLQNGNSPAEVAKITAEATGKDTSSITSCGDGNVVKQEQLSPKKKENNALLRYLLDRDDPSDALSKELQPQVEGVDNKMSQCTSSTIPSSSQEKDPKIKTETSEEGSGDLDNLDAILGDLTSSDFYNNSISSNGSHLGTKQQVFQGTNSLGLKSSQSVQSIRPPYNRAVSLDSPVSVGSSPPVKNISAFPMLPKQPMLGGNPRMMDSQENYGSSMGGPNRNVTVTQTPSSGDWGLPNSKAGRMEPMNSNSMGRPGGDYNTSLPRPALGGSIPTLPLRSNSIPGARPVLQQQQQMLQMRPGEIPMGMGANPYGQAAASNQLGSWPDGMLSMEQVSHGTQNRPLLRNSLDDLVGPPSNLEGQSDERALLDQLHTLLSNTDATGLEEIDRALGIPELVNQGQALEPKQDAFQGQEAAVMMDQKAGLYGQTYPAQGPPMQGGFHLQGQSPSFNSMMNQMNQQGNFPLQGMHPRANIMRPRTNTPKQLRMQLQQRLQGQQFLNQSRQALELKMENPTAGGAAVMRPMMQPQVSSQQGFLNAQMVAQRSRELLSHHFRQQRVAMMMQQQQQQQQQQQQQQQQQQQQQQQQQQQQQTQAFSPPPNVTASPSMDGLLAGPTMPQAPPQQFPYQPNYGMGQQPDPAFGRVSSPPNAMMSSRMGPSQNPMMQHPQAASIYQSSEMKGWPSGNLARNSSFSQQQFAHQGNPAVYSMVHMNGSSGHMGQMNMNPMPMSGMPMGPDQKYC", "assay": "as §1, with “3 (SRC-3)” for “2 (SRC-2)”, “1301 (Confirmation screen.), 1048 (Primary screen.)]” for “1297, 1032 ]”", "format": "functional"}, "[12]": {"target": "T3, Nucleotide-binding oligomerization domain-containing protein 1 (Homo sapiens, UniProt Q9Y239)", "T3 sequence (Q9Y239 whole entry)": "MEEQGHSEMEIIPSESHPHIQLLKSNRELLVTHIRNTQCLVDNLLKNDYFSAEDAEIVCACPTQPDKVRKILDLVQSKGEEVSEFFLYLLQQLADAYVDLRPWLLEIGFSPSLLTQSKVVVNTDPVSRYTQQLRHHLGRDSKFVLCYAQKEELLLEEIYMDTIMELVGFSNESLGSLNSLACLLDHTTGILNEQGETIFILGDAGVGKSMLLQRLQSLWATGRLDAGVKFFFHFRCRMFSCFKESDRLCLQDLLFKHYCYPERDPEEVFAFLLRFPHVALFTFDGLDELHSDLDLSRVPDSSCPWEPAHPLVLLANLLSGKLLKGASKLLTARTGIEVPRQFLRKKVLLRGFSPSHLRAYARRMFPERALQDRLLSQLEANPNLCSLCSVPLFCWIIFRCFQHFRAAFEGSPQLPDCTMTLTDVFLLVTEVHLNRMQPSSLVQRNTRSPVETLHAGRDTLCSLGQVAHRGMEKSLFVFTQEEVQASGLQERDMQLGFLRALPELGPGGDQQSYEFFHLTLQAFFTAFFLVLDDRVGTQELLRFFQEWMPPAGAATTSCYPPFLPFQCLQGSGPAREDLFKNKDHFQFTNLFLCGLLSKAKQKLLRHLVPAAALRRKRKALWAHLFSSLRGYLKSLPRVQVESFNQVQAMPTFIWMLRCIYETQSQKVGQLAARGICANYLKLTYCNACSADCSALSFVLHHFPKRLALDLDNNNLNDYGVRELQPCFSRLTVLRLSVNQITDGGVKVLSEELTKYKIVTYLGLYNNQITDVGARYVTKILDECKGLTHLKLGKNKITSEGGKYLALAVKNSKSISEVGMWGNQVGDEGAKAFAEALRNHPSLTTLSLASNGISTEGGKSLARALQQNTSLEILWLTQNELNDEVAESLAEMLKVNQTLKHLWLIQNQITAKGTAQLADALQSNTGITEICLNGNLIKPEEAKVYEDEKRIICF", "assay": "blockers of NOD1 pathway activity – revised, SAR follow-up (AID 2333)", "format": "functional"}, "HEK293 [13]": {"tested_on": "HEK293", "assay": "cells", "settings": "Homo sapiens"}, "HEK293 [14]": {"tested_on": "HEK293", "assay": "cells", "format": "functional, cell-based", "settings": "Homo sapiens"}, "HEK293 [15]": {"tested_on": "HEK293", "assay": "cells", "format": "functional, cell-based", "settings": "Homo sapiens", "remark": "listed apart in the source"}, "Tumor necrosis factor": {"target": "Tumor necrosis factor (Homo sapiens, UniProt P01375)", "assay": "analog potency on TNFa NF-kB signaling – cell-based, revised, SAR follow-up (AID 2337)", "format": "functional"}, "[16]": {"target": "T4, Nucleotide-binding oligomerization domain-containing protein 2 (Homo sapiens, UniProt Q9HC29)", "T4 sequence (Q9HC29 whole entry, the tested form may be a part)": "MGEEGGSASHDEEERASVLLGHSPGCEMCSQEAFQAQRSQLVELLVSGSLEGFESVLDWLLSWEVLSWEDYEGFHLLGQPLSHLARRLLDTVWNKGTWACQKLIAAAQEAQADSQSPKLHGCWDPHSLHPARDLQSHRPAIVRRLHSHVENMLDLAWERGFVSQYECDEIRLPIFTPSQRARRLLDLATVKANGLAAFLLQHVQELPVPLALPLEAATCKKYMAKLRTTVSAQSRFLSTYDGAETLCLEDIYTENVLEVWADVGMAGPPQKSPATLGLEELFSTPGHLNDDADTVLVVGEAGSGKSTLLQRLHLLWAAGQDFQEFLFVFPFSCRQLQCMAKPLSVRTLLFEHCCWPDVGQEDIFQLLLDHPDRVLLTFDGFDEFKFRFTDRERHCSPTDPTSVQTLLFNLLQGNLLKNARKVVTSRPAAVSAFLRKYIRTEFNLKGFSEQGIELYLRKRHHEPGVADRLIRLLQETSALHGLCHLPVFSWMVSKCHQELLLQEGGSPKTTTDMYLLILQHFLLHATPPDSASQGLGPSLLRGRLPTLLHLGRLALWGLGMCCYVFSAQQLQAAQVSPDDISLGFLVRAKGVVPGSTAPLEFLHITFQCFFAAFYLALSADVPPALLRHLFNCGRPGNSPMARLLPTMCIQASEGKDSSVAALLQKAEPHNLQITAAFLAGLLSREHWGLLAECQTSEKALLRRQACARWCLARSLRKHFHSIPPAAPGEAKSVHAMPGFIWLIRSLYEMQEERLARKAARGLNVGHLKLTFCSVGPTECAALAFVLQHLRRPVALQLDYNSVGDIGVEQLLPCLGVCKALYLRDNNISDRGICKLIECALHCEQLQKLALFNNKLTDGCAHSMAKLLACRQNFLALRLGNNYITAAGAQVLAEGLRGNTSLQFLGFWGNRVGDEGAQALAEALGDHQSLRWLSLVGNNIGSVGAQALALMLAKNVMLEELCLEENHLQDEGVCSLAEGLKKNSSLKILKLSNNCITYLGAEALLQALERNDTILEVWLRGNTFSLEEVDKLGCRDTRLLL", "assay": "inhibition of NOD2-driven NF-kB reporter – cell-based, luminescence, uHTS, HEK293 (AID 1566)", "format": "functional"}, "HEK293 [17]": {"tested_on": "HEK293", "assay": "inhibition of NOD1-driven NF-kB reporter – cell-based, luminescence, uHTS, primary screen (AID 1578)", "format": "functional", "settings": "Homo sapiens"}, "[18]": {"target": "T5, Small ubiquitin-related modifier 1 (Homo sapiens, UniProt P63165)", "T5 sequence (P63165 whole entry)": "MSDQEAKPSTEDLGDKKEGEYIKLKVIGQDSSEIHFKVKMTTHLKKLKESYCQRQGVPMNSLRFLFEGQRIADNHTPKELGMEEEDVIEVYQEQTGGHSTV", "assay": "SUMO1 protein-protein binding blockers, potency – biochemical, FRET, dose response (AID 624383)", "format": "functional", "settings": "read-out: IC50_Mean"}, "[19]": {"target": "T5, Small ubiquitin-related modifier 1", "assay": "SUMO1 protein interaction blockers, potency – biochemical, fluorescence polarization, uHTS hits, dose response (AID 624382)", "format": "functional", "settings": "read-out: IC50_Mean"}, "[20]": {"target": "T4, Nucleotide-binding oligomerization domain-containing protein 2", "assay": "PubChem AID 2334", "format": "functional"}, "HEK293 [21]": {"tested_on": "HEK293", "assay": "NOD2 signaling inhibitors in MDP-stimulated cells, cell-based, uHTS, luminescence (AID 2001)", "format": "functional", "settings": "Homo sapiens"}, "HEK293 [22]": {"tested_on": "HEK293", "assay": "cells", "format": "functional, cell-based", "settings": "Homo sapiens", "remark": "listed apart in the source"}}, "note": "Calls of active or inactive are those of the source.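 Throughout, for Absolute IC50 (XBP1): confirmatory dose-response counter-screen serving a CHOP assay.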", "data": [{"smiles": "CCOc1ccc(-c2[nH]nc(C)c2Oc2ccc(OC)cc2)c(O)c1", "values": [{"measurement": "Absolute IC50 (XBP1)", "setting": "X-box-binding protein 1", "value": 10, "unit": "µM"}]}, {"smiles": "CN(C)c1ccc(-n2cccc2/C=C/[N+](=O)[O-])cc1", "values": [{"measurement": "AC50", "setting": "[1]", "value": "10.2 µM (active)"}, {"measurement": "IC50", "setting": "Melanocortin receptor 4", "value": "12.1 µM (inactive)"}, {"measurement": "EC50", "setting": "[2]", "value": "9.06 µM (active)"}, {"measurement": "AC50", "setting": "[3]", "value": "4.36 µM (active)"}, {"measurement": "IC50", "setting": "[4]", "value": "> 64.6 µM (inactive)"}, {"measurement": "AC50", "setting": "[5]", "value": "2.93 µM (active)"}, {"measurement": "IC50", "setting": "[6]", "value": "43.2 µM (active)"}]}, {"smiles": "O=C(Cc1cccc2ccccc12)Nc1ccc(-c2cc3ccccc3oc2=O)cc1", "values": [{"measurement": "IC50", "setting": "[7]", "value": "> 80 µM (inactive)"}, {"measurement": "AC50", "setting": "HEK293 [8]", "value": "587 nM (active)"}, {"measurement": "EC50", "setting": "[9]", "value": "22 µM (not active)"}, {"measurement": "EC50", "setting": "[10]", "value": "22.7 µM (inactive)"}, {"measurement": "EC50", "setting": "[11]", "value": "> 79.4 µM (not active)"}]}, {"smiles": "Cc1oc2c(C)c3oc(=O)c(CCC(=O)O)c(C)c3cc2c1-c1ccccc1", "values": [{"measurement": "IC50", "setting": "[12]", "value": "5.43 µM (active)"}, {"measurement": "IC50", "setting": "HEK293 [13]", "value": "> 20 µM (inactive)"}, {"measurement": "IC50", "setting": "HEK293 [14]", "value": "> 20 µM (inactive)"}, {"measurement": "IC50", "setting": "HEK293 [15]", "value": "> 20 µM (inactive)"}, {"measurement": "IC50", "setting": "Tumor necrosis factor", "value": "5.03 µM (active)"}, {"measurement": "EC50", "setting": "[16]", "value": "3.67 µM (active)"}, {"measurement": "EC50", "setting": "HEK293 [17]", "value": "7.66 µM (active)"}, {"measurement": "IC50", "setting": "[18]", "value": "13.4 µM (active)"}, {"measurement": "IC50", "setting": "[19]", "value": "> 66.6 µM (inactive)"}, {"measurement": "IC50", "setting": "[20]", "value": "5.03 µM (active)"}, {"measurement": "IC50", "setting": "HEK293 [21]", "value": "14.8 µM (inactive)"}, {"measurement": "IC50", "setting": "HEK293 [22]", "value": "> 20 µM (inactive)"}]}]}
